Entries after “also recorded” stand apart in the source; their conditions may differ.
Assays:
[1] = tested on: lipogenic and gluconeogenesis genes (FASN, PCK1); experiment: Expression of lipogenic and gluconeogenesis genes (RNA-seq, RT-qPCR) in HepG2 cells; type: cell-based, human
Protocol: RNA was extracted using TRIzol™ reagent (Thermo Fisher Scientific, 15596026) following the manufacturer's instructions. cDNA synthesis was performed using qScript cDNA Supermix (QuantaBio, 95048-500) according to the manufacturer's instructions, using 1000 ng RNA as starting material.
qPCR was performed on a Thermo Fisher Scientific QuantStudio 6 machine using Fast SYBR™ Green Master Mix (Thermo Fisher, 4385618) and primers (listed below) according to the manufacturer's instructions. Expression data is presented after calculating the relative expression compared with the housekeeping gene RPLP0, using the equation Relative Quantification (RQ)=100/(2^(Target Gene Ct—RPLP0 Ct). When data is reported relative to a sample condition, the condition of reference was set as 1 and the data of the other conditions were reported as a ratio (condition/condition of reference).
RNA sequencing was performed by the Whitehead Institute Genome Technology Core. Libraries were prepared using the KAPA HyperPrep stranded RNA kit (Roche, KK8540) following manufacturer's instructions. Samples were sequenced on a HiSeq2500 in High-Output mode generating 50 bases, single-end reads.
RNA-sequencing (RNA-seq) bioinformatics analysis was performed on the Whitehead High-Performance Computing Facility using the nf-core RNA-seq pipeline v1.4.2^13 with Nextflow v20.04.1. Quality control of .fastq files was performed with FastQC v0.11.8. The reads were single-end and the strandedness was set to reverse. Low quality sequences were trimmed using Trim Galore!v0.6.4. Alignment was performed against the hg19 genome assembly using STAR v2.6.1d^17 and duplicates were marked using Picard MarkDuplicates v2.21.1. Quantification of transcripts was performed using featureCounts v1.6.4^18. Differential expression analysis was performed using edgeR v3.26.5^19. deepTools v3.3.1^20, dupRadar v1.14.0^21, Qualimap v.2.2.2-dev^22, and MultiQC v1.7 were used for quality control. […]

[2] = tested on: insulin receptor (IR); experiment: Immunoblot for IR levels in HepG2 cells; type: cell-based, human; conditions: insulin resistant HepG2 cells treated with (RM) or without (R) metformin
Protocol: Cells were washed with ice-cold PBS and lysed in Cell Lytic M (Sigma-Aldrich C2978) supplemented with protease and phosphatase inhibitors (Sigma Aldrich, 11873580001 and 4906837001) directly on the wells. Lysates were placed into a 1.5 ml tube and mixed at 4° C. for 20 min and then centrifuged at 13,000 rpm for 15 min. Protein concentration was determined using a BCA Protein Assay Kit (Life Technologies, 23250) according to the manufacturer's instructions. Equal amounts of protein (5-50 μg per sample) were separated on 10% or 12% Bis-Tris gels in 5% XT MOPS running buffer (Bio-Rad Laboratories, 1610788) at 100V until dye front reached the end of the gel. Protein was then transferred to a 0.45 μM PVDF membrane (Millipore, IPVH00010) in ice cold transfer buffer (25 mM Tris, 192 mM glycine, 20% methanol) at 300 mA for 1 hour or 250 mA for 2 hours at 4° C. […] Immunoblot quantification was performed using the “analyze gel” tool on Fiji/ImageJ v2.1.0/153c. […]
Cells were washed with ice-cold PBS (Life Technologies, AM9625) and lysed in Cell Lytic M (Sigma Aldrich C2978) supplemented with protease and phosphatase inhibitors (Sigma Aldrich, 11873580001 and 4906837001) directly on the wells. […] Super natant was collected and protein concentration was determined using a BCA Protein Assay Kit (Life Technologies, 23250) according to the manufacturer's instructions. […]

[3] = tested on: IR condensates; experiment: Immunofluorescence for IR in human liver tissue from donors; type: in vivo; conditions: liver tissue of donors with T2D treated with metformin vs T2D and healthy donors
From the text: (§1) Images were then processed using Fiji/ImageJ v2.1.0/153c.
as §1

[4] = insulin-sensitive HepG2 cells, 3 nM insulin 4 hours

Molecule | expression of the lipogenic gene FASN after insulin stimulation ([1]; cells exposed to pathologic levels (3 nM) of insulin for two days) | expression of gluconeogenesis genes [1, 4] | expression of lipogenic genes [1, 4] | IR levels (immunoblot for IRb) [2] | IR signal in condensates/puncta of hepatocytes [3]
insulin: insulin (Sigma Aldrich, I9278-5ML) used for acute stimulation and chronic physiological or pathological exposure | unchanged | downregulation of gluconeogenesis genes | upregulation of lipogenic genes | – | –
CN(C)C(=N)N=C(N)N [metformin, reference compound] | – | – | – | not due to changes in IR levels; also recorded: does not alter IR protein level in insulin resistant cells | increased IR signals in condensates that approximated those seen in tissue from healthy donors; also recorded: IR punctate signals similar to those observed in healthy tissues

Source: patent publication US20250186379A1, “METHODS AND AGENTS FOR DECREASING INSULIN RESISTANCE” (Whitehead Institute for Biomedical Research, priority 2021, published 2025)
